Tests used:
Assay type in all cases: biochemical
[1] = molecular target: PAK1 (Homo sapiens, UniProt Q13153); assay: In vitro PAK inhibition assay (SelectScreen, Ser/Thr 19 peptide)
Summary of the method: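 Kinase reaction ran in 50 mM HEPES pH 7.5, 0.01% BRIJ-35, 10 mM MgCl2, 1 mM EGTA with Ser/Thr 19 peptide for 60 min at room temperature, followed by 60 min protease development. Fluorescence gave percent phosphorylation. Compounds were tested as 10-point, 3-fold titrations in 1% DMSO final.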

[2] = molecular target: PAK2 (PAK65) (Homo sapiens, UniProt Q13177); assay: In vitro PAK inhibition assay (SelectScreen, Ser/Thr 20 peptide)
PAK2 (PAK65), sequence (Q13177 whole entry): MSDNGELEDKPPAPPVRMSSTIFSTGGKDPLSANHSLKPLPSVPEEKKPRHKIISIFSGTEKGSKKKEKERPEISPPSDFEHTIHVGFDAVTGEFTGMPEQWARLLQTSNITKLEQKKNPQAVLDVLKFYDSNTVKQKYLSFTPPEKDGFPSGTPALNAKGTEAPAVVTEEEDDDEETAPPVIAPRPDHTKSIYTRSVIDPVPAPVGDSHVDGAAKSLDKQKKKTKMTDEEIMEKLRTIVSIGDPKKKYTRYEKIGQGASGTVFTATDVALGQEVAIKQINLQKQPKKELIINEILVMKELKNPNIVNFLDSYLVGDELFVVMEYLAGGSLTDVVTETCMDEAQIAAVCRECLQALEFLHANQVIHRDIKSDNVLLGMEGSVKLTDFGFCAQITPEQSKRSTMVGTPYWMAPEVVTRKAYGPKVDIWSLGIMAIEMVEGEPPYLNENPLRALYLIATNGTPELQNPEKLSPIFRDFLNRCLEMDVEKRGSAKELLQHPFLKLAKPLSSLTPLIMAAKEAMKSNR
Summary of the method: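 FRET-based peptide cleavage assay: 0.29-6 ng PAK2 and 2 μM Ser/Thr 20 peptide in 50 mM HEPES pH 7.5, 10 mM MgCl2, 1 mM EGTA, 0.01% BRIJ-35, 1% DMSO final. Kinase reaction 60 min at room temperature, then 60 min development; 10-point 3-fold titrations, percent phosphorylation from fluorescence.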

[3] = molecular target: PAK3 (Homo sapiens, UniProt O75914); assay: as above
PAK3, sequence (O75914 whole entry): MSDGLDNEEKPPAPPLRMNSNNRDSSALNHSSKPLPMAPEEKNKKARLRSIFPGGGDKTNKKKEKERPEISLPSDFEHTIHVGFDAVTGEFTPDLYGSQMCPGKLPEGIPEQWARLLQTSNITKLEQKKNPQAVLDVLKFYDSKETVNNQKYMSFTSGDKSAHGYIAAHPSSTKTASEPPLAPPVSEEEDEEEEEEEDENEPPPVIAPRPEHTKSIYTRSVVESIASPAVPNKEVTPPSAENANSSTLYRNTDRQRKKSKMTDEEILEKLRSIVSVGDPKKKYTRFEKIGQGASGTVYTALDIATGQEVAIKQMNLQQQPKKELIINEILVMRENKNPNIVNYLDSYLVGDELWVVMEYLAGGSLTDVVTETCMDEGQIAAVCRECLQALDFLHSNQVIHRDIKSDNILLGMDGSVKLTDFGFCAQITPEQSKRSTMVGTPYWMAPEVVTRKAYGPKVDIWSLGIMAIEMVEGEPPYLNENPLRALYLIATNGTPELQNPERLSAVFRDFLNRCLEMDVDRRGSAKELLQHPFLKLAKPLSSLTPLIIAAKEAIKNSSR
Summary of the method: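 PAK3 phosphorylation of Ser/Thr 20 peptide in 50 mM HEPES pH 7.5, 0.01% BRIJ-35, 10 mM MgCl2, 1 mM EGTA, 1% DMSO final; 60 min at room temperature, then 60 min development reaction with fluorescence read-out. 10-point 3-fold titrations; percent phosphorylation from 0% and 100% phosphopeptide controls.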

[4] = molecular target: PAK4 (Homo sapiens, UniProt O96013); assay: as above
PAK4, sequence (O96013 whole entry): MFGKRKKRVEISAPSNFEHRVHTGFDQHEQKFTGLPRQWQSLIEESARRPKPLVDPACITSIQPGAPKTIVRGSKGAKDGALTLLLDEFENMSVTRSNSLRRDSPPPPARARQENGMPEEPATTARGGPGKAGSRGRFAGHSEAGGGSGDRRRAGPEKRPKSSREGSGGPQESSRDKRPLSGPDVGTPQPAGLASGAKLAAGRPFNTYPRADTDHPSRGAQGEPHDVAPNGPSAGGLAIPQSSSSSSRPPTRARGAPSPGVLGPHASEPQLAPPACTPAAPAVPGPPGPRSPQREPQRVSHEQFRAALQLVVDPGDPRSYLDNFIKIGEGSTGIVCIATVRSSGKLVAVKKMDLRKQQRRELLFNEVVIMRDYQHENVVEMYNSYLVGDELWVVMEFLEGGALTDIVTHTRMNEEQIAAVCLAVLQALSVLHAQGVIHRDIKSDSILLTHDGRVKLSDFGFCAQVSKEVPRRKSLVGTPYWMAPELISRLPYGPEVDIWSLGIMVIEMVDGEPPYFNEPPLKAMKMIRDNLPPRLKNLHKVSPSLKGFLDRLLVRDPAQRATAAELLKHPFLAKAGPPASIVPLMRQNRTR
Summary of the method: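 FRET-based Ser/Thr 20 peptide phosphorylation: 0.1-0.75 ng PAK4, 2 μM peptide in 50 mM HEPES pH 7.5, 10 mM MgCl2, 1 mM EGTA, 0.01% BRIJ-35, 1% DMSO; 60 min at room temperature, then 60 min protease development. 10-point 3-fold titrations; IC50 from sigmoidal fit.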

PAK1, sequence (Q13153 whole entry): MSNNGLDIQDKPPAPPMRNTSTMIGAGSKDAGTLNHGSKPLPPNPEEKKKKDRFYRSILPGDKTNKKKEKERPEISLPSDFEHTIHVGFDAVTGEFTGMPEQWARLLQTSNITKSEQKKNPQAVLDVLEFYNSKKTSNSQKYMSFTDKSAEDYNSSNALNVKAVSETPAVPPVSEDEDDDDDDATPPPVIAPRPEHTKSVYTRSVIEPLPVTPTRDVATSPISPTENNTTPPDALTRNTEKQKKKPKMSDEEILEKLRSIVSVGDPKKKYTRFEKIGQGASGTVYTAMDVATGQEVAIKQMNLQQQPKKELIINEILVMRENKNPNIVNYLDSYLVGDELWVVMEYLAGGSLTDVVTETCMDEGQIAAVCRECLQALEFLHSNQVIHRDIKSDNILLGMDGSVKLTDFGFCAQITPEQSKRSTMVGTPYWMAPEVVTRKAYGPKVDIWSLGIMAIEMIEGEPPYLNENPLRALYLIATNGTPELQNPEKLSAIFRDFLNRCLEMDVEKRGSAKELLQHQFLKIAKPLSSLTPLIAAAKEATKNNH

Row | SMILES | IC50 [1] | IC50 [2] | IC50 [3] | IC50 [4]
1 | CCn1c(=O)c(-c2ccc(C3CC3)cc2)cc2cnc(Nc3ccc(N4CCN(C)CC4)cc3)nc21 | 50 to 500 nM | 500 to 5000 nM | 0.5 to 5 µM | ≥ 5 µM
2 | CCn1c(=O)c(-c2ccc(-c3cccs3)cc2)cc2cnc(Nc3ccc(N4CCN(C)CC4)cc3)nc21 | 50 to 500 nM | 500 to 5000 nM | > 5 µM | ≥ 5 µM
3 | CCn1c(=O)c(-c2ccc(-c3ccc(OC)nc3)cc2)cc2cnc(Nc3ccc(N4CCN(C)CC4)cc3)nc21 | 50 to 500 nM | 50 to 500 nM | 0.05 to 0.5 µM | ≥ 5 µM
4 | CCn1c(=O)c(-c2nc(C3CCNCC3)sc2C)cc2cnc(Nc3ccc(N4CCN(C)CC4)cc3)nc21 | 500 to 5000 nM | > 5000 nM | > 5 µM | ≥ 5 µM
5 | CCn1c(=O)c(-c2ccc(-c3cncnc3)cc2Cl)cc2cnc(Nc3ccc(C4CNCCO4)cc3)nc21 (centres unmarked) | < 50 nM | < 50 nM | < 0.05 µM | 0.5 to 5 µM
6 | CCn1c(=O)c(-c2nc(C3CCN(C)CC3)sc2C)cc2cnc(Nc3ccc(N4CCN(C)CC4)cc3)nc21 | > 5000 nM | > 5000 nM | > 5 µM | ≥ 5 µM
7 | CCn1c(=O)c(-c2ccc(-c3ccc(NC(C)=O)nc3)cc2Cl)cc2cnc(Nc3ccc(N4CCN(C)CC4)cc3)nc21 | > 5000 nM | 500 to 5000 nM | 0.5 to 5 µM | ≥ 5 µM
8 | CCn1c(=O)c(-c2ccc(-c3cncnc3)cc2)cc2cnc(Nc3ccc(N4CCN(C)CC4)cc3)nc21 | 50 to 500 nM | 50 to 500 nM | 0.5 to 5 µM | ≥ 5 µM
9 | CCn1c(=O)c(-c2ccc(-c3cccc4ncccc34)cc2)cc2cnc(Nc3ccc(N4CCN(C)CC4)cc3)nc21 | > 5000 nM | > 5000 nM | > 5 µM | ≥ 5 µM
10 | CCn1c(=O)c(-c2ccc(-c3cccs3)s2)cc2cnc(Nc3ccc(N4CCN(C)CC4)cc3)nc21 | > 5000 nM | > 5000 nM | > 5 µM | ≥ 5 µM
11 | CCn1c(=O)c(-c2nc(C3CCN(C(C)=O)CC3)sc2C)cc2cnc(Nc3ccc(N4CCN(C)CC4)cc3)nc21 | > 5000 nM | > 5000 nM | > 5 µM | ≥ 5 µM
12 | CCn1c(=O)c(-c2ccc(-c3cncnc3)cc2Cl)cc2cnc(Nc3ccc(C4CN(C)CCO4)cc3)nc21 (centres unmarked) | < 50 nM | < 50 nM | < 0.05 µM | ≥ 5 µM
13 | CCn1c(=O)c(-c2ccc(-c3ncc(C)s3)cc2Cl)cc2cnc(Nc3ccc(N4CCN(C)CC4)cc3)nc21 | < 50 nM | < 50 nM | 0.05 to 0.5 µM | 0.5 to 5 µM
14 | CCn1c(=O)c(-c2ccc(-c3cncs3)cc2)cc2cnc(Nc3ccc(N4CCN(C)CC4)cc3)nc21 | 50 to 500 nM | 500 to 5000 nM | > 5 µM | ≥ 5 µM
